Test results reported in PubChem BioAssay AID624410 (The Scripps Research Institute Molecular Screening Center, 2012).
Activity calls are given as the source filed them. No rule for the calls is given here.

molecular target: Orexin/Hypocretin receptor type 1 (Homo sapiens) (UniProt O43613); assay: HCRTR1 antagonism measured by time-resolved FRET – cell-based, HTRF, OX1R antagonist probe project, late-stage follow-up (AID 624410); conditions: OX1R-expressing cells, HTRF antagonist assay
Sequence (O43613 whole entry, looked up): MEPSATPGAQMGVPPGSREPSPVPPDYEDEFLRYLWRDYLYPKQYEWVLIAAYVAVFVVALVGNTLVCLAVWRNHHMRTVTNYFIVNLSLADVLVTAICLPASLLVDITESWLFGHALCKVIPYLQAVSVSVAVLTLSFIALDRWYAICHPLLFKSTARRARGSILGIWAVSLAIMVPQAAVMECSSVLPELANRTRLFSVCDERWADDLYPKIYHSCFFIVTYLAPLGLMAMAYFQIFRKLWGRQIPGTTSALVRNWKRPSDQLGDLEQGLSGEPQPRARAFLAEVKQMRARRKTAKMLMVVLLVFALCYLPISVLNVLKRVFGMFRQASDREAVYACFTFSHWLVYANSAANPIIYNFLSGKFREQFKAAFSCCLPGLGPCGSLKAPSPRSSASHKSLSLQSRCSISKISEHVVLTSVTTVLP

Row | IC50 | SMILES
1 | 2710 nM | COc1ccc(OC)c(S(=O)(=O)NCC(c2ccco2)N2CCc3ccccc32)c1 (stereo not given)
2 | 1900 nM | COc1cc(OC)c(-c2nc3ccccc3s2)cc1OC
3 | inactive | Cc1noc(C)c1COc1ccc(C(=O)OCC(=O)N2CC(=O)Nc3ccccc32)cc1
4 | 1900 nM | CSc1cccc(N2CC(C(=O)NCCN3C(=O)S/C(=C\c4cccnc4)C3=O)CC2=O)c1 (stereo not given)
5 | 277 nM | O=C(CN1C(=O)/C(=C\c2cccc(Br)c2)Oc2ccccc21)NCC1CCCO1 (stereo not given)
6 | 655 nM | CCN(CC)c1ccc(NC(=O)Cn2c(C(C)NC(=O)c3ccccc3)nc3ccccc32)cc1 (stereo not given)
7 | 468 nM | COc1cccc(/C=C2/Oc3ccccc3N(CC(=O)NCC3CCCO3)C2=O)c1 (stereo not given)
8 | 386 nM | CSc1cccc(NC(=O)C2CCCN2S(=O)(=O)c2ccc(Br)s2)c1 (stereo not given)
9 | 769 nM | CCOc1ccccc1C(=O)Nc1ccc2nc3n(c(=O)c2c1)CCCCC3
10 | 3740 nM | Cc1ccccc1NC(=O)C1CCCN1S(=O)(=O)c1ccccc1C(F)(F)F (stereo not given)
11 | 3060 nM | Cc1ccc(-c2csc3nnc(SCC(=O)Nc4nsc(-c5ccccc5)n4)n23)cc1
12 | 437 nM | Cc1cc(Cl)ccc1OCCCC(=O)NCCN1C(=O)S/C(=C\c2cccnc2)C1=O
13 | 1610 nM | CCc1cc2c(SCC(=O)N(CC)c3c(N)n(Cc4ccccc4)c(=O)[nH]c3=O)ncnc2s1
14 | 6540 nM | COCCCNC(=O)CCC(=O)NNc1nc2ccccc2c2nc(-c3ccccc3)nn12
15 | 1960 nM | O=C(CSc1ccc(-c2ccccc2)nn1)c1cccs1
16 | 3340 nM | Fc1cccc(Nc2nc3ccccc3n3cnnc23)c1
17 | 3020 nM | CC(=C/c1ccccc1)/C=C1/SC(N2CCOCC2)=NC1=O
18 | 750 nM | Cc1c(NS(=O)(=O)c2cccc(C(=O)OCC(=O)N(C)C3CCCCC3)c2)c(=O)n(-c2ccccc2)n1C
19 | inactive | CCOC(=O)N1CCN(C(=O)CSc2ccc(-c3ccccc3)nn2)CC1
20 | inactive | O=c1cc(CN2CC(O)Cc3ccc4ccccc4c32)nc2sccn12 (stereo not given)
21 | 2190 nM | CCc1cc(C(=O)OCC(=O)N2CCC(c3ccccc3)=N2)sc1C
22 | 2820 nM | Cc1cccc(C=NNC(=O)c2cc3c(s2)-c2ccccc2CC3)c1
23 | 2030 nM | Cc1cccc(NC(=O)[C@@H]2CCCN2S(=O)(=O)c2ccc(Cl)cc2)c1
24 | 844 nM | CCn1c(SCC(=O)Nc2ccc3c(c2)c2ccccc2n3CC)nnc1-c1cnccn1
25 | 611 nM | CCSC1=C(C#N)C(c2ccccc2Cl)C(C(=O)c2cccs2)C(O)(C(F)(F)F)N1 (stereo not given)
